Consider nine compounds from patent US8889671B2, “Compounds and methods for treating bacterial infections” (AstraZeneca AB, priority 2013, dated 2014).

≈ marks a conversion by molar mass, not a printed value. Read-outs that look alike come from different tables or passages of the source.

Assay [1] concerns the target Escherichia coli DNA gyrase A/B tetramer (Escherichia coli (strain K12), UniProt P0AES4+P0AES6). Description: DNA gyrase supercoiling activity fluorescence polarisation assay. The assay is classed as biochemical. The following applies: 0.3 mM ATP. The procedure, abridged: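 Relaxed triplex-forming plasmid (130 micrograms/mL) supercoiled by 5 nM gyrase A/B tetramer in Tris-HCl pH 7.5 buffer with 4 mM MgCl2 and 0.3 mM ATP, ~30 min, ambient temperature. Quenched with 5′-BODIPY-FL triplex probe at pH 3.5; fluorescence anisotropy read after 60 min. IC50 by nonlinear regression against two control reactions.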
A general note: Fluorescence polarisation rises when a labelled molecule tumbles more slowly, as on binding a larger partner.

In another assay the test system is Escherichia coli. Briefly: Susceptibility testing (MIC) Assay 2, broth microdilution. The assay is classed as cell-based. The settings on record: K12, read-out: Eco MIC.
The subject of the next assay is Pseudomonas aeruginosa. Described as above. The format is cell-based. The settings on record: for MIC: PAO1, read-out: Pae MIC.
The next assay concerns Haemophilus influenzae. The assay is described as above. The assay is classed as cell-based. The settings on record: ATCC 51907, in vivo strain, read-out: Hin MIC.
The next assay relates to Klebsiella pneumoniae. The assay is described as above. The format is cell-based. The following applies: clinical isolate, mucoid, read-out: Kpn MIC.
A further assay concerns Streptococcus pneumoniae. Briefly: Susceptibility testing (MIC) Assay 1, broth microdilution. The format is cell-based.
The test system of the next assay is Staphylococcus aureus. Described as above. The assay is classed as cell-based.
Another assay deals with Streptococcus pyogenes. The assay is described as above. The format is cell-based. The settings on record: Streptococcus pyrgenes, in vivo strain, read-out: Spy MIC.
Setting [2] is: Eco Gyr FP Mean IC50, E. coli DNA gyrase supercoiling.
The mark [3] stands for this setting: ATCC51907, Haemophilus influenzae.
Where [4] appears, read: in vivo strain (footnote b), read-out: Spn(b) MIC.
Setting [5] is: in vivo strain (footnote c), read-out: Spn(c) MIC.
The mark [6] stands for this setting: Staphylococcus aureus, Staphylococcus aureus in vivo strain, MSQS, read-out: Sau(d) MIC.
[7] abbreviates: Staphylococcus aureus, in vivo strain, MRQR, read-out: Sau(e) MIC.
Where [8] appears, read: Staphylococcus aureus, serum, read-out: Sau(f) MIC.

The term IC50 denotes the concentration needed to halve the response being measured.

`C[C@@H]1CN2c3c(cc4c(N5C[C@H](C=NO)OC5=O)noc4c3F)CC3(C(=O)NC(=O)NC3=O)[C@H]2[C@H](C)O1` [Example 40, (2R,4S,4aS)-11-Fluoro-8-{(5R)-5-[(hydroxyimino)methyl]-2-oxo-1,3-oxazolidin-3-yl}-2,4-dimethyl-1,2,4,4a-tetrahydro-2′H,6H-spiro[1,4-oxazino[4,3a][1,2]oxazolo[4,5-g]quinoline-5,5′-pyrimidine]-2′,4′,6′(1′H,3′H)-trione]: in assay [1] (setting [2]), the 50% inhibitory concentration (IC50) was found to be 380 nM. Also, the MIC in the assay on Escherichia coli is 12 µM (≈ 6.2 µg/mL); with Pseudomonas aeruginosa, above 200 µM; in the assay with Haemophilus influenzae (setting [3]), 0.39 µM (≈ 0.201 µg/mL); in the assay on Klebsiella pneumoniae, above 200 µM; with Streptococcus pneumoniae (setting [4]) it was 0.39 µM (≈ 0.201 µg/mL); with Streptococcus pneumoniae (setting [5]), 0.78 µM (≈ 0.403 µg/mL). Further, the MIC in the assay on Staphylococcus aureus (setting [6]) was 0.78 µM (≈ 0.403 µg/mL); in the assay on Staphylococcus aureus (setting [7]) it was 3.1 µM (≈ 1.6 µg/mL); in the assay with Staphylococcus aureus (setting [8]), 1.6 µM (≈ 0.826 µg/mL); in the assay on Streptococcus pyogenes (Streptococcus pyogenes) it was 0.28 µM (≈ 0.145 µg/mL).
`C[C@@H]1CN2c3c(cc4c(N5C(=O)OC[C@@H]5C#N)noc4c3F)CC3(C(=O)NC(=O)NC3=O)[C@H]2[C@H](C)O1` [Example 41, (4S)-3-[(2R,4S,4aS)-11-Fluoro-2,4-dimethyl-2′,4′,6′-trioxo-1,1′,2,3′,4,4′,4a,6′-octahydro-2′H,6H-spiro[1,4-oxazino[4,3-a][1,2]oxazolo[4,5-g]quinoline-5,5′-pyrimidin]-8-yl]-2-oxo-1,3-oxazolidine-4-carbonitrile] returned an IC50 in assay [1] (setting [2]) of 460 nM. The MIC was 25 µM (≈ 12.5 µg/mL) with Escherichia coli; above 200 µM with Pseudomonas aeruginosa; 0.78 µM (≈ 0.389 µg/mL) in the assay with Haemophilus influenzae (setting [3]); above 200 µM with Klebsiella pneumoniae; 0.39 µM (≈ 0.194 µg/mL) in the assay on Streptococcus pneumoniae (setting [4]); 0.78 µM (≈ 0.389 µg/mL) in the assay on Streptococcus pneumoniae (setting [5]). The MIC in the assay on Staphylococcus aureus (setting [6]) was found to be 0.78 µM (≈ 0.389 µg/mL); with Staphylococcus aureus (setting [7]) it was 1.6 µM (≈ 0.797 µg/mL); in the assay on Staphylococcus aureus (setting [8]), 1.6 µM (≈ 0.797 µg/mL); with Streptococcus pyogenes (Streptococcus pyogenes) it was 0.78 µM (≈ 0.389 µg/mL).
The compound `CON=C[C@H]1COC(=O)N1c1noc2c(F)c3c(cc12)CC1(C(=O)NC(=O)NC1=O)[C@H]1[C@H](C)O[C@H](C)CN31` [Example 42, (2R,4S,4aS)-11-Fluoro-8-{(4S)-4-[(methoxyimino)methyl]-2-oxo-1,3-oxazolidin-3-yl}-2,4-dimethyl-1,2,4,4a-tetrahydro-2′H,6H-spiro[1,4-oxazino[4,3-a][1,2]oxazolo[4,5-g]quinoline-5,5′-pyrimidine]-2′,4′,6′(1′H,3′H)-trione] came in with an IC50 in assay [1] (setting [2]) of 290 nM. Moreover, the MIC was 25 µM (≈ 13.3 µg/mL) with Escherichia coli; above 200 µM in the assay on Pseudomonas aeruginosa; 0.39 µM (≈ 0.207 µg/mL) with Haemophilus influenzae (setting [3]); 200 µM (≈ 106 µg/mL) in the assay with Klebsiella pneumoniae; 0.39 µM (≈ 0.207 µg/mL) with Streptococcus pneumoniae (setting [4]); 0.39 µM (≈ 0.207 µg/mL) with Streptococcus pneumoniae (setting [5]). Besides, the MIC is below 0.2 µM in the assay on Staphylococcus aureus (setting [6]), 0.39 µM (≈ 0.207 µg/mL) in the assay with Staphylococcus aureus (setting [7]), 1.6 µM (≈ 0.849 µg/mL) in the assay with Staphylococcus aureus (setting [8]) and 0.39 µM (≈ 0.207 µg/mL) in the assay with Streptococcus pyogenes (Streptococcus pyogenes).
In turn, `CON=C[C@H]1CN(c2noc3c(F)c4c(cc23)CC2(C(=O)NC(=O)NC2=O)[C@H]2[C@H](C)O[C@H](C)CN42)C(=O)O1` [Example 43] showed an IC50 in assay [1] (setting [2]) of 440 nM. The MIC in the assay on Escherichia coli is 50 µM (≈ 26.5 µg/mL); with Pseudomonas aeruginosa, above 100 µM; in the assay with Haemophilus influenzae (setting [3]), 1.6 µM (≈ 0.849 µg/mL); in the assay with Klebsiella pneumoniae, above 100 µM; in the assay with Streptococcus pneumoniae (setting [4]) it was 0.78 µM (≈ 0.414 µg/mL); with Streptococcus pneumoniae (setting [5]) it was 1.6 µM (≈ 0.849 µg/mL). Further, the MIC in the assay with Staphylococcus aureus (setting [6]) was 0.39 µM (≈ 0.207 µg/mL); with Staphylococcus aureus (setting [7]), 0.78 µM (≈ 0.414 µg/mL); in the assay with Staphylococcus aureus (setting [8]) it was 1.6 µM (≈ 0.849 µg/mL); in the assay with Streptococcus pyogenes (Streptococcus pyogenes) it was 0.78 µM (≈ 0.414 µg/mL).
In turn, `C[C@@H]1CN2c3c(cc4c(N5C[C@H](CN=[N+]=[N-])OC5=O)noc4c3F)CC3(C(=O)NC(=O)NC3=O)[C@H]2[C@H](C)O1` [Example 44, (2R,4S,4aS)-8-[(5R)-5-(Azidomethyl)-2-oxo-1,3-oxazolidin-3-yl]-11-fluoro-2,4-dimethyl-1,2,4,4a-tetrahydro-2′H,6H-spiro[1,4-oxazino[4,3-a][1,2]oxazolo[4,5-g]quinoline-5,5′-pyrimidine]-2′,4′,6′(1′H,3′H)-trione] returned a concentration for half-maximal inhibition (IC50) in assay [1] (setting [2]) of 530 nM. The MIC was 50 µM (≈ 26.4 µg/mL) in the assay on Escherichia coli; above 200 µM with Pseudomonas aeruginosa; 0.78 µM (≈ 0.412 µg/mL) in the assay with Haemophilus influenzae (setting [3]); above 200 µM with Klebsiella pneumoniae; 0.78 µM (≈ 0.412 µg/mL) in the assay with Streptococcus pneumoniae (setting [4]); 1.6 µM (≈ 0.846 µg/mL) with Streptococcus pneumoniae (setting [5]). In addition, the MIC in the assay with Staphylococcus aureus (setting [6]) came out at 0.78 µM (≈ 0.412 µg/mL); with Staphylococcus aureus (setting [7]), 3.1 µM (≈ 1.64 µg/mL); in the assay on Staphylococcus aureus (setting [8]) it was 3.1 µM (≈ 1.64 µg/mL); in the assay with Streptococcus pyogenes (Streptococcus pyogenes) it was 0.78 µM (≈ 0.412 µg/mL).
In the case of `CSC[C@H]1COC(=O)N1c1noc2c(F)c3c(cc12)CC1(C(=O)NC(=O)NC1=O)[C@H]1[C@H](C)O[C@H](C)CN31` [Example 45], the IC50 in assay [1] (setting [2]) amounted to 260 nM. Further, the MIC in the assay on Escherichia coli is 25 µM (≈ 13.3 µg/mL); with Pseudomonas aeruginosa, above 200 µM; in the assay on Haemophilus influenzae (setting [3]) it was 0.39 µM (≈ 0.208 µg/mL); with Klebsiella pneumoniae, 200 µM (≈ 107 µg/mL); with Streptococcus pneumoniae (setting [4]) it was 0.39 µM (≈ 0.208 µg/mL); with Streptococcus pneumoniae (setting [5]), 0.55 µM (≈ 0.293 µg/mL). Moreover, the MIC with Staphylococcus aureus (setting [6]) was below 0.2 µM; in the assay with Staphylococcus aureus (setting [7]), 0.39 µM (≈ 0.208 µg/mL); with Staphylococcus aureus (setting [8]), 0.78 µM (≈ 0.416 µg/mL); with Streptococcus pyogenes (Streptococcus pyogenes), 0.39 µM (≈ 0.208 µg/mL).
As to `C[C@@H]1CN2c3c(cc4c(N5C(=O)OC[C@@H]5CS(C)(=O)=O)noc4c3F)CC3(C(=O)NC(=O)NC3=O)[C@H]2[C@H](C)O1` [Example 46], the IC50 in assay [1] (setting [2]) stood at 170 nM. Moreover, the MIC with Escherichia coli was 100 µM (≈ 56.6 µg/mL); in the assay on Pseudomonas aeruginosa, above 200 µM; in the assay on Haemophilus influenzae (setting [3]) it was 0.78 µM (≈ 0.441 µg/mL); in the assay with Klebsiella pneumoniae it was above 200 µM; with Streptococcus pneumoniae (setting [4]) it was 0.78 µM (≈ 0.441 µg/mL); in the assay on Streptococcus pneumoniae (setting [5]), 1.6 µM (≈ 0.905 µg/mL). Moreover, the MIC was determined as 1.6 µM (≈ 0.905 µg/mL) in the assay with Staphylococcus aureus (setting [6]), 6.2 µM (≈ 3.51 µg/mL) with Staphylococcus aureus (setting [7]), 1.6 µM (≈ 0.905 µg/mL) with Staphylococcus aureus (setting [8]) and 0.39 µM (≈ 0.221 µg/mL) with Streptococcus pyogenes (Streptococcus pyogenes).
Consider `C[C@@H]1CN2c3c(cc4c(N5C(=O)OC[C@H]5CN=[N+]=[N-])noc4c3F)CC3(C(=O)NC(=O)NC3=O)[C@H]2[C@H](C)O1` [Example 47, (2R,4S,4aS)-8-((R)-4-(Azidomethyl)-2-oxooxazolidin-3-yl)-11-fluoro-2,4-dimethyl-2,4,4a,6-tetrahydro-1H,1′H-spiro[isoxazolo[4,5-g][1,4]oxazino[4,3-a]quinoline-5,5′-pyrimidine]-2′,4′,6′(3′H)-trione], for which the IC50 in assay [1] (setting [2]) turned out to be 150 nM. Further, the MIC was 25 µM (≈ 13.2 µg/mL) in the assay with Escherichia coli; above 200 µM with Pseudomonas aeruginosa; 0.78 µM (≈ 0.412 µg/mL) in the assay on Haemophilus influenzae (setting [3]); 200 µM (≈ 106 µg/mL) in the assay on Klebsiella pneumoniae; 0.39 µM (≈ 0.206 µg/mL) in the assay on Streptococcus pneumoniae (setting [4]); 0.55 µM (≈ 0.291 µg/mL) in the assay on Streptococcus pneumoniae (setting [5]). In addition, the MIC with Staphylococcus aureus (setting [6]) is below 0.2 µM; in the assay with Staphylococcus aureus (setting [7]), 0.78 µM (≈ 0.412 µg/mL); in the assay on Staphylococcus aureus (setting [8]), 0.78 µM (≈ 0.412 µg/mL); in the assay with Streptococcus pyogenes (Streptococcus pyogenes), 0.279 µM (≈ 0.147 µg/mL).
Regarding `C[C@@H]1CN2c3c(cc4c(N5C(=O)OC[C@@H]5CN=[N+]=[N-])noc4c3F)CC3(C(=O)NC(=O)NC3=O)[C@H]2[C@H](C)O1` [Example 48], the half-inhibitory concentration (IC50) in assay [1] (E. coli DNA gyrase supercoiling, read-out: Eco Gyr FP Mean IC50) is above 2100 nM. In addition, the MIC in the assay on Escherichia coli is listed as 200 µM (≈ 106 µg/mL); with Haemophilus influenzae, 6.2 µM (≈ 3.28 µg/mL); with Klebsiella pneumoniae, above 200 µM; with Streptococcus pneumoniae (setting [4]) it was 12 µM (≈ 6.34 µg/mL); in the assay with Streptococcus pneumoniae (setting [5]) it was 12 µM (≈ 6.34 µg/mL); in the assay on Staphylococcus aureus (Staphylococcus aureus in vivo strain, MSQS, read-out: Sau(d) MIC) it was 6.2 µM (≈ 3.28 µg/mL). For the same compound, the figures for the MIC in the assay on Staphylococcus aureus (setting [7]), in the assay with Staphylococcus aureus (setting [8]) and in the assay with Streptococcus pyogenes were 12 µM (≈ 6.34 µg/mL), 50 µM (≈ 26.4 µg/mL) and 6.2 µM (≈ 3.28 µg/mL), respectively. Besides, the “Pae MIC” value in the assay with Pseudomonas aeruginosa (PAO1) is above 200 µM.
